Experimental data as given in US11214570B2, “Pyrrolopyridine derivative, method for producing same, and use thereof” (ST PHARM CO., LTD., priority 2017, dated 2022).
pEC50, pIC50: −log10 of the molar value. Where two headings read alike, the source gives them in different places.

Experiments:
[1] = tested on: HIV-1 Clone 4736_4; assay: Inhibition of HIV-1 clone 4736_4 (Raltegravir resistance mutant); type: cell-based; conditions: Human immunodeficiency virus 1
Protocol: (§1) In order to look into the HIV-1 (Wild/Mutant type) inhibition effects of the compound of the invention, a test for HIV-1 (Wild/Mutant type) inhibition effect was carried out in vitro as follows according to a known method (H. Tanaka et al., J. Med. Chem., 1991, 34, 349). MT-4 cells were used as host cells, and the degree of the compound of the present invention inhibiting cytotoxicity for the virus-infected MT-4 cells was investigated.
(§2) First, MT-4 cells were dispersed in a culture medium at a concentration of 1×10^4cells/well, and HIV-1 was inoculated so that the concentration was 500 TCI50 (concentration at which 50% of the cells are infected)/well. Immediately after the inoculation, the cell dispersion was transferred in 100 μL each to a flat microtiter plate in which a sample of the compound of the invention was placed. The sample was incubated for approximately for 4 to 5 days at […], and the virus inhibition effect was determined with an MTT method. […] As a comparative compound, azidothymidine (AZT), Raltegravir, Dolutegravir, and Elvitegravir were used.

[2] = tested on: HIV-1 Clone 8070_1; assay: Inhibition of HIV-1 clone 8070_1 (Raltegravir resistance mutant); type: cell-based; conditions: Human immunodeficiency virus 1
Protocol: as §1, §2

[3] = tested on: HIV-1 NL4-3 wt; assay: Inhibition of HIV-1 NL4-3 wt; type: cell-based; conditions: Human immunodeficiency virus 1, NL43
Protocol: as §1, §2

[4] = tested on: HIV-1 Clone 1556_1; assay: Inhibition of HIV-1 clone 1556_1 (Raltegravir resistance mutant); type: cell-based; conditions: Human immunodeficiency virus 1
Protocol: as §1, §2

[5] = tested on: HIV-1 Clone 4736_2; assay: microbe, parasite or virus in culture; type: cell-based; conditions: Human immunodeficiency virus 1
Protocol: as §1, §2

[6] = Liver microsomal stability, rat; type: in vitro ADME; conditions: rat liver microsome, NADPH
Protocol: (§3) The in vitro metabolic stability test was conducted for the compound of Example 1 of the present invention. In order to confirm in vitro metabolic stability, liver microsomal half-life of the compound was observed. A drug compound was reacted with NADPH using a species-specific (rat, dog, monkey, and human) liver microsome containing various metabolizing enzymes, and then half-life of the drug was determined by quantifying with LC-MS/MS in minutes.

[7] = Liver microsomal stability, human; type: in vitro ADME; conditions: human liver microsome, NADPH
Protocol: as §3

[8] = tested on: HIV-1 Clone 8070_2; assay: Inhibition of HIV-1 clone 8070_2 (Raltegravir resistance mutant); type: cell-based; conditions: Human immunodeficiency virus 1
Protocol: as §1, §2

[9] = Pharmacokinetics test in male rats; type: in vivo, rat
Protocol: Experiments were carried out to detect changes in in vivo kinetics including in vivo absorption, distribution, metabolism and excretion for the compound of Example 1 of the present invention. A tube was inserted into the jugular vein and femoral vein of a rat. A drug was administered into the femoral vein in the case of intravenous administration, and a drug was administered into the oral cavity in the case of oral administration. Blood was collected from the jugular vein at a predetermined time. Dose concentration was 1 mg/kg for intravenous administration, and it was 2 mg/kg for oral administration. After centrifuging blood to separate plasma, the plasma and urine samples were pretreated with an appropriate organic solvent, and then concentration of the drug was analyzed with LC-MS/MS. From the data of the drug concentration in blood relative to time which were analyzed after oral and intravenous administrations, the noncompartmental pharmacokinetic parameter was calculated with WinNonlin (Pharsight, USA).

[10] = tested on: CYP1A2, CYP2C9, CYP2D6, CYP3A4 and CYPC19; assay: CYP450 inhibition test (five enzymes, text summary); type: in vitro ADME; conditions: human liver microsomes, 10 μM
Protocol: The CYP450 inhibition test was carried out for the compound of the present invention. To human liver microsomes (0.25 mg/ml), 0.1 M phosphate buffer (pH 7.4) and drug cocktails of five drug-metabolizing enzymes (CYP1A2, CYP2C9, CYP2D6, CYP3A4 and CYPC19) (Cocktail A: Phenacetin 50 μM, S-mephenytoin 100 μM, dextromethorphan 5 nM, midazolam 2.5 μM, Cocktail B: tolbutamide 100 μM), the compound of Example 1 was added at concentrations of 0 and 10 μM, respectively, and then cultured at 37° C. for 15 minutes. Subsequently, in order to terminate the reaction, an acetonitrile solution containing an internal standard (chloropropamide) was added thereto, and resulting mixture was centrifuged (14,000 rpm, 4° C.) for 5 minutes. Supernatant was then injected into LC/MS/MS system and the metabolites of the substrate drugs were simultaneously analyzed to thereby evaluate activities of the test compound inhibiting the drug-metabolizing enzymes.

[11] = Liver microsomal stability, monkey; type: in vitro ADME; conditions: monkey liver microsome, NADPH, read-out: Monkey liver (T1/2, Min)
Protocol: as §3

[12] = biological target: T1, hERG K+ channel (Homo sapiens, UniProt Q12809); assay: hERG K+ channel assay (Patch Clamp Recording Method); type: cell-based; conditions: HERG-HEK293, automated planar patch clamp
T1 construct: expressed in transfected cells; host or cells: HERG-HEK293
T1 sequence (Q12809 whole entry): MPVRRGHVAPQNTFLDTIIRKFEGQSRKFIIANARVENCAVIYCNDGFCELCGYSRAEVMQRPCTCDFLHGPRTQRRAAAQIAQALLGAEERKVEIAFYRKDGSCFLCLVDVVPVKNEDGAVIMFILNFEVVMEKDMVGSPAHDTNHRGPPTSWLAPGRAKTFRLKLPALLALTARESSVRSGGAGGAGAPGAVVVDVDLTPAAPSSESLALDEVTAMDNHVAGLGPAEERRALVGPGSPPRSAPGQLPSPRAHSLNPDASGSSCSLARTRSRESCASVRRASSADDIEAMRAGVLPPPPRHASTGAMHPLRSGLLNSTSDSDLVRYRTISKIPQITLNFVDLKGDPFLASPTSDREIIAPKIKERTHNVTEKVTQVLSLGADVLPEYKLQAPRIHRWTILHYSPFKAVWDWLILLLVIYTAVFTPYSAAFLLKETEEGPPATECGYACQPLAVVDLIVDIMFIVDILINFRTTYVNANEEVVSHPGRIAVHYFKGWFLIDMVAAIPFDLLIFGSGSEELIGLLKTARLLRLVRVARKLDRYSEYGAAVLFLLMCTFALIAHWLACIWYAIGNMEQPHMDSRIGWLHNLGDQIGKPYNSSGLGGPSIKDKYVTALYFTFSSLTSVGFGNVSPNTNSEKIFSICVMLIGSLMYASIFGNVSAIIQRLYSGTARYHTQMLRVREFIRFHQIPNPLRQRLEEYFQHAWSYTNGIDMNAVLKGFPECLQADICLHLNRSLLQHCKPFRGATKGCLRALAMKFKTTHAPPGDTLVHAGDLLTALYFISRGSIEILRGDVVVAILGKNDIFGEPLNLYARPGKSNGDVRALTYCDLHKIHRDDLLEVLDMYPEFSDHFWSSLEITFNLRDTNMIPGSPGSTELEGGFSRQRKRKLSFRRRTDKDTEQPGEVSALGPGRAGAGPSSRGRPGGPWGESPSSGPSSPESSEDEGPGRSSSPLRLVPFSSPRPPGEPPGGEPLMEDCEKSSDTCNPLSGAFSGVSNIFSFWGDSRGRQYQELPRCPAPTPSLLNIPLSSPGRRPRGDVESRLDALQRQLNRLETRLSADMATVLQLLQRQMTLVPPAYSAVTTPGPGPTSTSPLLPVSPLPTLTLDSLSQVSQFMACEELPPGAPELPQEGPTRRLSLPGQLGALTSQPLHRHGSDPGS
Protocol: hERG K^+ channel assay was carried out to predict cardiotoxicity for the compound of the invention. The hERG activity of the compound was measured with HERG-HEK293 using automated planar patch clamp [PatchXpress 7000A]. This method is the most well-known method for studying ion channel, in which the flow of ions through the channel is directly measured with a voltage clamp.

[13] = tested on: Wild Type HIV-1(IIIB); assay: Inhibition of wild type HIV-1(IIIB) in MT-4 cells (MTT method); type: cell-based
Protocol: as §1, §2

[14] = Liver microsomal stability, dog; type: in vitro ADME; conditions: dog liver microsome, NADPH, read-out: Dog liver (T1/2, Min)
Protocol: as §3

[15] = Human immunodeficiency virus 1, IIIB, MT4, read-out: EC50: concentration of 50% inhibition of HIV infection

| SMILES | pIC50 [1] | pIC50 [2] | pIC50 [3] | pIC50 [4] | pIC50 [5] | pIC50 [8] | pEC50 [13, 15] | also measured |
| --- | --- | --- | --- | --- | --- | --- | --- | --- |
| COc1cc2c(cc1Cc1cccc(Cl)c1F)c(=O)c(C(=O)O)cn2[C@H](CO)C(C)C [Elvitegravir] | 6.49 | < 5.00 | > 10.00 | 6.56 | 6.39 |  |  |  |
| Cc1nc2c(c(C)c(C)n2Cc2cnn(C)c2)c(-c2ccc(Cl)cc2)c1[C@H](OC(C)(C)C)C(=O)O [Example 1] | 8.47 | 9.05 | 8.44 | 8.47 | 8.96 | 8.47 | 8.49 | half-life ([6]; liver microsomes, read-out: Rat liver (T1/2, Min)): > 145 min; half-life ([7]; liver microsomes, read-out: Human liver (T1/2, Min)): 136 min; F ([9]; PO, 2 mg/kg): 71.8%; AUC(0-inf) ([9]; rat, plasma, IV, 1 mg/kg): 6.51 µM·h; AUC(0-t) ([9]; rat, plasma, IV, 1 mg/kg): 6.08 µM·h; clearance ([9]; rat, plasma, IV, 1 mg/kg): 5.38 mL/min/kg; half-life ([9]; rat, plasma, IV, 1 mg/kg): 518 min; Vd ([9]; rat, plasma, IV, 1 mg/kg, read-out: Vss): 1.77 L/kg; AUC(0-inf) ([9]; rat, plasma, PO, 2 mg/kg): 10.4 µM·h; AUC(0-t) ([9]; rat, plasma, PO, 2 mg/kg): 8.73 µM·h; Cmax ([9]; rat, plasma, PO, 2 mg/kg): 914 nM; Tmax ([9]; rat, plasma, PO, 2 mg/kg): 3.2 h; half-life ([9]; rat, plasma, PO, 2 mg/kg): 520 min; inhibitory activity against five CYP enzymes [10]: does not exhibit an inhibitory activity; half-life ([11]; liver microsomes): 133 min; pIC50 [12]: 4.18; half-life ([14]; liver microsomes): > 145 min |
| C[C@@H]1CCO[C@H]2Cn3cc(C(=O)NCc4ccc(F)cc4F)c(=O)c(O)c3C(=O)N12 [Dolutegravir] | 8.52 | 8.07 |  | 8.49 | 8.46 | 8.36 |  | pIC50 ([3]; NL4-3 wt, read-out: IC50): 8.49 |
| C[C@]12CC[C@H]3[C@@H](CCC4=CC(=O)CC[C@@]43C)[C@@H]1CC[C@@H]2O [Testosterone, reference compound] |  |  |  |  |  |  |  | Rat liver (T1/2, Min) [6]: 0.7 min; Human liver (T1/2, Min) [7]: 19.7 min; half-life ([11]; microsomes): 13 min; half-life ([14]; microsomes): 23.6 min |
| Cc1nnc(C(=O)NC(C)(C)c2nc(C(=O)NCc3ccc(F)cc3)c(O)c(=O)n2C)o1 [Raltegravir] | 6.45 | 5.36 | 8.34 | 5.43 | 6.45 | 5.42 | 8.23 |  |
| Cc1nn(C)c(Cl)c1Cn1c(C)c(C)c2c(-c3ccc(Cl)cc3)c([C@H](OC(C)(C)C)C(=O)O)c(C)nc21 [Example 2, (S)-2-(tert-butoxy)-2-(1-((5-chloro-1,3-dimethyl-1H-pyrazol-4-yl)methyl)-4-(4-chlorophenyl)-2,3,6-trimethyl-1H-pyrrolo[2,3-b]pyridin-5-yl) acetic acid] |  |  |  |  |  |  |  | pEC50 ([13]; Human immunodeficiency virus 1, MT4, Wild Type HIV-1(IIIB) in MT-4 Cells, MTT method, read-out: EC50: concentration of 50% inhibition of HIV infection): 7.59 |
